Results published in patent US10590389B2, “Endodermal cell production method, liver cell production method, pancreatic cell production method, endodermal cell induction promoter, liver cell induction promoting kit, pancreatic cell induction promoting kit, and microfluidic device” (Kyoto University, priority 2014, dated 2020).

Columns and labels:
Type in all cases: cell-based
[1] = tested on: H9 cell line (human ES cell); test: Endodermal cell induction from pluripotent cells with or without ROCK activity inhibitory compound (Example 8)
Description: On a 24-well dish (growth area: 1.9 cm^2/well, BD Falcon [trademark]), a H9 cell line (obtained from WiCell), which is a human ES cell, was seeded in a dispersed state at a cell density of 1×10^5 cells/well and cultured for 24 hours. The culture conditions were set as follows: 37° C. and 5% CO2. As a culture solution, mTeSR-1 (STEMCELL) containing 10 μmol/l Y27632 (ROCK activity inhibitory compound, Wako) and 100 ng/ml activin A (R&D Systems) was used. To the mTeSR-1A, a penicillin-streptomycin solution (Wako) had been added beforehand so that the mTeSR-1 contained 100 U/ml penicillin and 100 U/ml streptomycin. After the culture, the culture solution used on culture day 1 was removed, and a culture solution with the same composition was further added to each well. The cells were further cultured for one day under the above-described culture conditions. The culture solution used on culture day 2 was removed, and mTeSR-1 containing 10 μmol/l Y27632, 100 ng/ml activin A, 10 ng/ml BMP-4 (R&D Systems), 10 μmol/l LY294002 (PI3K activity inhibitory compound, CAYMAN CHEMICAL COMPANY), and 3 μmol/l CHIR99021 (GSK-3β activity inhibitory compound, STEMGENT) was added. Then, the cells were cultured for 24 hours under the above-described culture conditions. […]

[2] = tested on: H9 cell line (human ES cell); test: CXCR4 expression in induced endodermal cells by flow cytometry; settings: dispersed or cluster-forming H9 cells, 10 μmol/l Y27632, under any of these conditions
Description: On a 24-well dish (growth area: 1.9 cm^2/well, BD Falcon [trademark]), a H9 cell line (obtained from WiCell), which is a human ES cell, was seeded in a dispersed state at a cell density of 1×10^5 cells/well and cultured for 24 hours. The culture conditions were set as follows: 37° C. and 5% CO2. As a culture solution, mTeSR-1 (STEMCELL) containing 10 μmol/l Y27632 (ROCK activity inhibitory compound, Wako) and 100 ng/ml activin A (R&D Systems) was used. To the mTeSR-1A, a penicillin-streptomycin solution (Wako) had been added beforehand so that the mTeSR-1 contained 100 U/ml penicillin and 100 U/ml streptomycin. […] CXCR4 expression in the stained cells was measured using a flow cytometer (BD FACSCanto [trademark] II, BD Biosciences). CXCR4 expression was also measured in the same manner, except that, from culture day 1 to culture day 4, TeSR-E8 or CDM-PVA was used instead of the mTeSR-1. Further, CXCR4 expression was measured in the same manner, except that, instead of the H9 cell line in the dispersed state, the H9 cell line forming cell clusters was seeded on culture day 1. As a control, CXCR4 expression was measured in the same manner, except that an APC-labeled control antibody (clone name: G155-178, BD Pharmigen) was used instead of the anti-human CXCR4 antibody. […] CXCR4 expression in the thus-obtained endodermal cells was measured in the same manner as in (2) in Example 1. […]

[3] = tested on: H9 cell line (human ES cell); test: Number of endodermal cells produced after induction; settings: Example 2; seeding 5×10^4 to 2×10^5 cells/well; dispersed or clusters; 10 μmol/l Y27632; under any of these conditions
Description: Differentiation into endodermal cells was induced in the same manner as in Example 1, except that the H9 cell line was seeded at a cell density of 5×10^4 cells/well, 1×10^5 cells/well, or 2×10^5 cells/well. Also, differentiation into endodermal cells was induced in the same manner, except that, instead of the H9 cell line in the dispersed state, a H9 cell line forming cell clusters was seeded. Then, the endodermal cells obtained after the induction were collected. The endodermal cells obtained in (1) above were counted.

C[C@@H](N)[C@H]1CC[C@H](C(=O)Nc2ccncc2)CC1 [Y27632]
probability of induction ([1]; endodermal cell induction examined on culture day 5, 10 μmol/l Y27632 on culture days 1-4): 100% | Number of times endodermal cell induction was performed ([1]; successful inductions / total inductions, examined on culture day 5, 10 μmol/l Y27632 on culture days 1-4 with activin A, BMP-4, LY294002, CHIR99021): 20/20 | proportion of the cells positive to the endoderm cell marker CXCR4 ([2]; Example 1, after culture day 5, mTeSR-1, TeSR-E8 or CDM-PVA): ≥ 80.5% | proportion of the cells positive to the endoderm cell marker CXCR4 ([2]; Example 2, seeding 5×10^4, 1×10^5 or 2×10^5 cells/well): ≥ 83.7% | number of the endodermal cells obtained after the induction relative to the number of cells of the H9 cell line at the start of the induction [3]: at least six
